Measured values published in US20070010671A1, “Novel quinazoline derivatives and methods of treatment related to the use thereof” (priority 2003, published 2007).

What follows are molecules tested against MCH receptor (Homo sapiens, UniProt Q99705) (assay: High throughput functional screening FLIPR/FDSS6000: inhibition of MCH-evoked intracellular Ca2+ changes). Settings: class by percent of control at 10^-7 M or IC50.
Type: cell-based
How it was run: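 Seed cells the day before, then load them with Fluo4-AM for one hour at 37° C and wash in HEPES-buffered HBSS, pH 7.4. Add compound for 3 min, then stimulate with 50 nM MCH. Monitor the calcium transient for 290 s.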
With `CC(C)c1cc(Br)c(NC(=O)NC[C@H]2CC[C@@H](Nc3nc(N(C)C)c4ccccc4n3)CC2)c(Br)c1` [compound 759, N-(2,6-dibromo-4-isopropylphenyl)-N′-[(cis-4-{[4-(dimethylamino)quinazolin-2-yl]amino}cyclohexyl)methyl]urea] the class was 2 (Class 2: The value of percent of control at 10^−7 M was from 40% to 60% or the value of IC50 was from 50 nM to 200 nM.).
With `CN(C)c1nc(N[C@H]2CC[C@@H](CNC(=O)Nc3ccccc3C#N)CC2)nc2ccccc12` [compound 760] the class was 3 (Class 3: The value of percent of control at 10^−7 M was more than 60% or the value of IC50 was more than 200 nM.).
With `CN(C)c1nc(N[C@H]2CC[C@@H](CNC(=O)Nc3cccs3)CC2)nc2ccccc12` [compound 761] the class was 3 (Class 3: The value of percent of control at 10^−7 M was more than 60% or the value of IC50 was more than 200 nM.).
For `COc1ccc(NC(=O)NC[C@H]2CC[C@@H](Nc3nc(N(C)C)c4ccccc4n3)CC2)cc1OC1CCCC1` [compound 762], the class was 3 (Class 3: The value of percent of control at 10^−7 M was more than 60% or the value of IC50 was more than 200 nM.).
In the case of `CN(C)c1nc(N[C@H]2CC[C@@H](CNC(=O)Nc3ccc4c(c3)OCCCO4)CC2)nc2ccccc12` [compound 763], the class is reported as 3 (Class 3: The value of percent of control at 10^−7 M was more than 60% or the value of IC50 was more than 200 nM.).
With `CN(C)c1nc(N[C@H]2CC[C@@H](CNC(=O)Nc3ccsc3)CC2)nc2ccccc12` [compound 764, N-[(cis-4-{[4-(dimethylamino)quinazolin-2-yl]amino}cyclohexyl)methyl]-N′-3-thienylurea] the class was 2 (Class 2: The value of percent of control at 10^−7 M was from 40% to 60% or the value of IC50 was from 50 nM to 200 nM.).
For `CN(C)c1nc(N[C@H]2CC[C@@H](CNC(=O)Nc3ccc(C(C)(C)C)cc3)CC2)nc2ccccc12` [compound 765], the class was 3 (Class 3: The value of percent of control at 10^−7 M was more than 60% or the value of IC50 was more than 200 nM.).
For `CCCCc1ccc(NC(=O)NC[C@H]2CC[C@@H](Nc3nc(N(C)C)c4ccccc4n3)CC2)c(C)c1` [compound 766], the class was 3 (Class 3: The value of percent of control at 10^−7 M was more than 60% or the value of IC50 was more than 200 nM.).
With `Cc1cc(NC(=O)NC[C@H]2CC[C@@H](Nc3nc(N(C)C)c4ccccc4n3)CC2)c(C(F)(F)F)o1` [compound 767, N-[(cis-4-{[4-(dimethylamino)quinazolin-2-yl]amino}cyclohexyl)methyl]-N′-[5-methyl-2-(trifluoromethyl)-3-furyl]urea] the class was 1 (Class 1: The value of percent of control at 10^−7 M was less than 40% or the value of IC50 was less than 50 nM.).
With `CN(C)c1nc(N[C@H]2CC[C@@H](CNC(=O)Nc3ccc(-c4ccccc4)s3)CC2)nc2ccccc12` [compound 768] the class was 3 (Class 3: The value of percent of control at 10^−7 M was more than 60% or the value of IC50 was more than 200 nM.).
In the case of `CN(C)c1nc(N[C@H]2CC[C@@H](CNC(=O)Nc3cc(F)cc4c3OCOC4)CC2)nc2ccccc12` [compound 769, N-[(cis-4-{[4-(dimethylamino)quinazolin-2-yl]amino}cyclohexyl)methyl]-N′-(6-fluoro-4H-1,3-benzodioxin-8-yl)urea], the class is reported as 2 (Class 2: The value of percent of control at 10^−7 M was from 40% to 60% or the value of IC50 was from 50 nM to 200 nM.).
`CN(C)c1nc(N[C@H]2CC[C@@H](CNC(=O)NC3CCN(C(=O)OCc4ccccc4)CC3)CC2)nc2ccccc12` [compound 770] was tested, and the class was 3 (Class 3: The value of percent of control at 10^−7 M was more than 60% or the value of IC50 was more than 200 nM.).
`Cc1ccc2nc(-c3ccc(NC(=O)NC[C@H]4CC[C@@H](Nc5nc(N(C)C)c6ccccc6n5)CC4)cc3)sc2c1` [compound 771] was tested, and the class was 3 (Class 3: The value of percent of control at 10^−7 M was more than 60% or the value of IC50 was more than 200 nM.).
`CN(C)c1ccc(NC(=O)NC[C@H]2CC[C@@H](Nc3nc(N(C)C)c4ccccc4n3)CC2)cc1` [compound 772] was tested, and the class was 3 (Class 3: The value of percent of control at 10^−7 M was more than 60% or the value of IC50 was more than 200 nM.).
With `CN(C)c1nc(N[C@H]2CC[C@@H](CNC(=O)Nc3cc(Cl)nc(Cl)c3)CC2)nc2ccccc12` [compound 773] the class was 3 (Class 3: The value of percent of control at 10^−7 M was more than 60% or the value of IC50 was more than 200 nM.).
In the case of `Cc1noc(C)c1NC(=O)NC[C@H]1CC[C@@H](Nc2nc(N(C)C)c3ccccc3n2)CC1` [compound 774, N-[(cis-4-{[4-(dimethylamino)quinazolin-2-yl]amino}cyclohexyl)methyl]-N′-(3,5-dimethylisoxazol-4-yl)urea], the class is reported as 2 (Class 2: The value of percent of control at 10^−7 M was from 40% to 60% or the value of IC50 was from 50 nM to 200 nM.).
In the case of `Cc1noc(-c2ccccc2)c1NC(=O)NC[C@H]1CC[C@@H](Nc2nc(N(C)C)c3ccccc3n2)CC1` [compound 775], the class is reported as 1 (Class 1: The value of percent of control at 10^−7 M was less than 40% or the value of IC50 was less than 50 nM.).
With `Cc1onc(-c2ccccc2)c1NC(=O)NC[C@H]1CC[C@@H](Nc2nc(N(C)C)c3ccccc3n2)CC1` [compound 776] the class was 2 (Class 2: The value of percent of control at 10^−7 M was from 40% to 60% or the value of IC50 was from 50 nM to 200 nM.).
In the case of `C#CCNC(=S)NC[C@H]1CC[C@@H](Nc2nc(N(C)C)c3ccccc3n2)CC1` [compound 777], the class is reported as 3 (Class 3: The value of percent of control at 10^−7 M was more than 60% or the value of IC50 was more than 200 nM.).
In the case of `CN(C)c1nc(N[C@H]2CC[C@@H](CNC(=S)Nc3ccc(S(=O)(=O)N4CCCCC4)cc3)CC2)nc2ccccc12` [compound 778], the class is reported as 3 (Class 3: The value of percent of control at 10^−7 M was more than 60% or the value of IC50 was more than 200 nM.).
For `CN(C)c1nc(N[C@H]2CC[C@@H](CNC(=S)NCCC3=CCCCC3)CC2)nc2ccccc12` [compound 779], the class was 3 (Class 3: The value of percent of control at 10^−7 M was more than 60% or the value of IC50 was more than 200 nM.).
`Cc1cccc(NC(=S)NC[C@H]2CC[C@@H](Nc3nc(N(C)C)c4ccccc4n3)CC2)c1C` [compound 780] was tested, and the class was 3 (Class 3: The value of percent of control at 10^−7 M was more than 60% or the value of IC50 was more than 200 nM.).
For `CN(C)c1nc(N[C@H]2CC[C@@H](CNC(=S)Nc3c(F)cc(Br)cc3Br)CC2)nc2ccccc12` [compound 781, N-(2,4-dibromo-6-fluorophenyl)-N′-[(cis-4-{[4-(dimethylamino)quinazolin-2-yl]amino}cyclohexyl)methyl]thiourea], the class was 2 (Class 2: The value of percent of control at 10^−7 M was from 40% to 60% or the value of IC50 was from 50 nM to 200 nM.).
With `Cc1cc(Cl)cc(Cl)c1NC(=S)NC[C@H]1CC[C@@H](Nc2nc(N(C)C)c3ccccc3n2)CC1` [compound 782, N-(2,4-dichloro-6-methylphenyl)-N′-[(cis-4-{[4-(dimethylamino)quinazolin-2-yl]amino}cyclohexyl)methyl]thiourea] the class was 2 (Class 2: The value of percent of control at 10^−7 M was from 40% to 60% or the value of IC50 was from 50 nM to 200 nM.).
`Cc1ccc(C)c(NC(=S)NC[C@H]2CC[C@@H](Nc3nc(N(C)C)c4ccccc4n3)CC2)c1` [compound 783, N-[(cis-4-{[4-(dimethylamino)quinazolin-2-yl]amino}cyclohexyl)methyl]-N′-(2,5-dimethylphenyl)thiourea] was tested, and the class was 2 (Class 2: The value of percent of control at 10^−7 M was from 40% to 60% or the value of IC50 was from 50 nM to 200 nM.).
With `CC(C)c1ccc(NC(=S)NC[C@H]2CC[C@@H](Nc3nc(N(C)C)c4ccccc4n3)CC2)c(Br)c1` [compound 784] the class was 3 (Class 3: The value of percent of control at 10^−7 M was more than 60% or the value of IC50 was more than 200 nM.).
In the case of `CN(C)c1nc(N[C@H]2CC[C@@H](CNC(=S)Nc3cc(F)ccc3Br)CC2)nc2ccccc12` [compound 785], the class is reported as 3 (Class 3: The value of percent of control at 10^−7 M was more than 60% or the value of IC50 was more than 200 nM.).
For `CCOc1ccccc1NC(=S)NC[C@H]1CC[C@@H](Nc2nc(N(C)C)c3ccccc3n2)CC1` [compound 786, N-[(cis-4-{[4-(dimethylamino)quinazolin-2-yl]amino}cyclohexyl)methyl]-N′-(2-ethoxyphenyl)thiourea], the class was 2 (Class 2: The value of percent of control at 10^−7 M was from 40% to 60% or the value of IC50 was from 50 nM to 200 nM.).
`Cc1cccc(C(C)C)c1NC(=S)NC[C@H]1CC[C@@H](Nc2nc(N(C)C)c3ccccc3n2)CC1` [compound 787] was tested, and the class was 1 (Class 1: The value of percent of control at 10^−7 M was less than 40% or the value of IC50 was less than 50 nM.).
`COc1ccccc1CNC(=S)NC[C@H]1CC[C@@H](Nc2nc(N(C)C)c3ccccc3n2)CC1` [compound 788] was tested, and the class was 3 (Class 3: The value of percent of control at 10^−7 M was more than 60% or the value of IC50 was more than 200 nM.).
With `CN(C)c1nc(N[C@H]2CC[C@@H](CNC(=S)Nc3ccc4c(c3)OCCO4)CC2)nc2ccccc12` [compound 789] the class was 3 (Class 3: The value of percent of control at 10^−7 M was more than 60% or the value of IC50 was more than 200 nM.).
For `Cc1ccc(NC(=S)NC[C@H]2CC[C@@H](Nc3nc(N(C)C)c4ccccc4n3)CC2)cc1C` [compound 790], the class was 3 (Class 3: The value of percent of control at 10^−7 M was more than 60% or the value of IC50 was more than 200 nM.).
With `CN(C)c1nc(N[C@H]2CC[C@@H](CNC(=S)Nc3ccc4c(c3)OCO4)CC2)nc2ccccc12` [compound 791] the class was 3 (Class 3: The value of percent of control at 10^−7 M was more than 60% or the value of IC50 was more than 200 nM.).
For `Cc1c(Cl)cccc1NC(=S)NC[C@H]1CC[C@@H](Nc2nc(N(C)C)c3ccccc3n2)CC1` [compound 792], the class was 3 (Class 3: The value of percent of control at 10^−7 M was more than 60% or the value of IC50 was more than 200 nM.).
In the case of `CN(C)c1nc(N[C@H]2CC[C@@H](CNC(=S)Nc3ccc(Br)cc3OC(F)(F)F)CC2)nc2ccccc12` [compound 793], the class is reported as 2 (Class 2: The value of percent of control at 10^−7 M was from 40% to 60% or the value of IC50 was from 50 nM to 200 nM.).
